Source: patent US20230265151A1, “GIP/GLP1 CO-AGONIST COMPOUNDS” (priority 2020, published 2023)
Read-outs that look alike come from different tables or passages of the source. *1 amine or outer side, *2 acyl side, *3 side chain or, on linkers, in order; H or OH if unused. Where a SMILES comes first, the peptide text is derived from it. Side-chain parts run from the residue outwards. [ ]: non-standard residue; d: D form. The star is where a group is joined. αMePhe(2-F) = C[C@](N)(Cc1ccccc1F)C(=O)O; γGlu = O=C(O)[C@H](CCC(=O)[*:2])N[*:1]; αMeY = C[C@](N)(Cc1ccc(O)cc1)C(=O)O; αMeF = C[C@](N)(Cc1ccccc1)C(=O)O; 4Pal = N[C@@H](Cc1ccncc1)C(=O)O; αMeL = CC(C)C[C@](C)(N)C(=O)O; Lauroyl = CCCCCCCCCCCC(=O)*; Orn = NCCC[C@H](N)C(=O)O; AEEA = NCCOCCOCC(=O)O; Aib = CC(C)(N)C(=O)O

Legend:
Type in all cases: cell-based
[1] = target: T1, hGCGR (Homo sapiens, UniProt P47871); assay: Functional cAMP formation (HTRF) in HEK-293 clonal cells expressing hGCGR, 0.1% bovine casein, without or with 1.0% human serum albumin
T1 construct: expressed in transfected cells
T1 sequence (P47871 26-477): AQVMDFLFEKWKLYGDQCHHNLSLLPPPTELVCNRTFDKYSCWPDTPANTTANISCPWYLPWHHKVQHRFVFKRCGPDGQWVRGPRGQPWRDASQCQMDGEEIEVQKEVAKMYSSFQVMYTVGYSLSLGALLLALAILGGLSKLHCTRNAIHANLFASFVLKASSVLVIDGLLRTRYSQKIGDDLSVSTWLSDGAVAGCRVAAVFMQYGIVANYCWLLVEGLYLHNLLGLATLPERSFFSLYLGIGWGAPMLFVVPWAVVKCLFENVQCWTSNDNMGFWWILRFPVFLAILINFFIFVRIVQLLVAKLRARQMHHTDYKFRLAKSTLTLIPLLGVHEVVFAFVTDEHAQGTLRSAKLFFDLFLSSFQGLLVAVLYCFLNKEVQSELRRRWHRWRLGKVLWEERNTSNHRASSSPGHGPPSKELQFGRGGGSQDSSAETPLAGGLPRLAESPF
Outline: (§1)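 Cells were stimulated with peptide for 30 min at 37° C, then lysed in buffer carrying cAMP-d2 and anti-cAMP Eu3+-cryptate for a competitive HTRF read after at least 60 min at room temperature. The 665/620 nm ratio was converted to nM cAMP against a standard curve.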

[2] = target: hGLP-1R (Homo sapiens, UniProt P43220); assay: Functional cAMP formation (HTRF) in HEK-293 clonal cells expressing hGLP-1R, 0.1% bovine casein, without or with 1.0% human serum albumin; set-up: expressed in transfected cells; details: for Emax: percent of maximal response to GLP-1(7-36)NH2; for EC50: cAMP
hGLP-1R, sequence (P43220 24-463): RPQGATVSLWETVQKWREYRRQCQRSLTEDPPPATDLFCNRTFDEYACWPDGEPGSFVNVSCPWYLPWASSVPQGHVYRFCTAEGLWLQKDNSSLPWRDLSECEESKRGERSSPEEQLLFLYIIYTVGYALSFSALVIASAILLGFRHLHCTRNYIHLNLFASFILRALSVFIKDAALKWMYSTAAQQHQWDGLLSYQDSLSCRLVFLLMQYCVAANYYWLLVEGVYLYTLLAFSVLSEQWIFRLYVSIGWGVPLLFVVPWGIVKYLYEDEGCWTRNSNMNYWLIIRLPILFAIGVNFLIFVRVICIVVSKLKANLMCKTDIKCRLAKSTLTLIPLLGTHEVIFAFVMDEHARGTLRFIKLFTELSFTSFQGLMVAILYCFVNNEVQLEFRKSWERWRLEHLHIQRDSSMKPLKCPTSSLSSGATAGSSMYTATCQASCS
Outline: as §1

[3] = target: T2, hGIPR (Homo sapiens, UniProt P48546); assay: Functional cAMP formation (HTRF) in HEK-293 clonal cells expressing hGIPR, 0.1% bovine casein, without or with 1.0% human serum albumin; details: for EC50: cAMP
T2 construct: expressed in transfected cells
T2 sequence (P48546 22-466): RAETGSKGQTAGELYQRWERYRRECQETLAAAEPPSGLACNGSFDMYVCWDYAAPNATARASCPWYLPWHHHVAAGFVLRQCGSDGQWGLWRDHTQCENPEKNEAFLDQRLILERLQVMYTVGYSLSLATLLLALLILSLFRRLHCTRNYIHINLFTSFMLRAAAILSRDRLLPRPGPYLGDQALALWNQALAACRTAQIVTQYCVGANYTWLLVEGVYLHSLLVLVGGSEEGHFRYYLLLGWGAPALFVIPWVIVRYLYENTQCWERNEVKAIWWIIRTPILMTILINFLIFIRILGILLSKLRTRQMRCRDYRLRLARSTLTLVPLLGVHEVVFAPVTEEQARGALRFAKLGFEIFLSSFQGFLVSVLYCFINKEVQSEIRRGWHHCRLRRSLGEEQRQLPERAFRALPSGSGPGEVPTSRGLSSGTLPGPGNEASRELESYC
Outline: as §1

[4] = cAMP, 37° C., 0.1% bovine casein (no human serum albumin), geometric mean, read-out: hGCGR EC50, nM (SEM, n)
[5] = 37° C., 0.1% bovine casein (no human serum albumin), geometric mean, read-out: hGLP-1R EC50, nM (SEM, n)
[6] = 37° C., 0.1% bovine casein (no human serum albumin), geometric mean, read-out: hGIPR EC50, nM (SEM, n)

## CC[C@H](C)[C@H](NC(=O)[C@H](CC(C)C)NC(=O)[C@](C)(Cc1ccc(O)cc1)NC(=O)[C@@H](CCC(=O)O)NC(=O)[C@@H](NC(=O)[C@H](Cc1ccccc1)NC(=O)[C@H](CCC(=O)O)NC(=O)C(C)(C)NC(=O)[C@H](CCC(N)=O)NC(=O)[C@H](C)NC(=O)[C@H](CCCCNC(=O)COCCOCCNC(=O)COCCOCCNC(=O)CC[C@H](NC(=O)CCCCCCCCCCCCC(=O)O)C(=O)O)NC(=O)[C@H](CCCN)NC(=O)[C@H](CC(=O)O)NC(=O)[C@H](CC(C)C)NC(=O)[C@](C)(CC(C)C)NC(=O)[C@@H](NC(=O)[C@H](CO)NC(=O)[C@H](CC1CCCCC1)NC(=O)[C@H](CC(=O)O)NC(=O)[C@H](CO)NC(=O)[C@@H](NC(=O)[C@](C)(Cc1ccccc1F)NC(=O)[C@@H](NC(=O)CNC(=O)[C@H](CCC(=O)O)NC(=O)C(C)(C)NC(=O)[C@@H](N)Cc1ccc(O)cc1)[C@@H](C)O)[C@@H](C)O)[C@@H](C)CC)[C@@H](C)CC)C(=O)N[C@@H](CCC(=O)O)C(=O)NCC(=O)NCC(=O)N[C@@H](CCCCNC(=O)COCCOCCNC(=O)COCCOCCNC(=O)CC[C@H](NC(=O)CCCCCCCCCCCCC(=O)O)C(=O)O)C(=O)N[C@@H](CO)C(=O)N[C@@H](CO)C(=O)NCC(=O)N[C@@H](C)C(=O)N1CCC[C@H]1C(=O)N1CCC[C@H]1C(=O)N1CCC[C@H]1C(=O)N[C@@H](CO)C(N)=O [Example 98]
[1]; 0.1% bovine casein and 1.0% human serum albumin, 37° C., geometric mean, read-out: hGCGR EC50, nM (SEM, n)
  EC50: > 9950 nM
[1]; cAMP, incubated at 37° C., 0.1% bovine casein (no human serum albumin), geometric mean, read-out: hGCGR EC50, nM (SEM, n)
  EC50: > 9950 nM
[2]; HEK293, 0.1% bovine casein and 1.0% human serum albumin, 37° C., read-out: hGLP-1R Emax, % ± SEM
  Emax: 97.5%
[2]; incubated at 37° C., 0.1% bovine casein (no human serum albumin), geometric mean, read-out: hGLP-1R EC50, nM (SEM, n)
  EC50: 0.227 nM
[3]; HEK293, 0.1% bovine casein and 1.0% human serum albumin, 37° C., percent of maximal response to GIP(1-42)NH2, read-out: hGIPR Emax, % ± SEM
  Emax: 95%
[3]; HEK293, percent of maximal response to GIP(1-42)NH2, 37° C., 0.1% bovine casein, arithmetic mean, read-out: hGIPR Emax, % ± SEM
  Emax: 97.7 ± 2.54%
[3]; incubated at 37° C., 0.1% bovine casein (no human serum albumin), geometric mean, read-out: hGIPR EC50, nM (SEM, n)
  EC50: 0.0148 nM

## CCCCCCCCCCCC(=O)N[C@@H](CCC(=O)NCCOCCOCC(=O)NCCOCCOCC(=O)NCCCC[C@H](NC(=O)[C@H](CCCN)NC(=O)[C@H](CC(=O)O)NC(=O)[C@H](CC(C)C)NC(=O)[C@](C)(CC(C)C)NC(=O)[C@@H](NC(=O)C(C)(C)NC(=O)[C@H](Cc1ccncc1)NC(=O)[C@H](CC(=O)O)NC(=O)[C@H](CO)NC(=O)[C@@H](NC(=O)[C@](C)(Cc1ccccc1F)NC(=O)[C@@H](NC(=O)CNC(=O)[C@H](CCC(=O)O)NC(=O)C(C)(C)NC(=O)[C@@H](N)Cc1ccc(O)cc1)[C@@H](C)O)[C@@H](C)O)[C@@H](C)CC)C(=O)N[C@@H](C)C(=O)N[C@@H](CCC(N)=O)C(=O)NC(C)(C)C(=O)N[C@@H](CCCCNC(=O)COCCOCCNC(=O)COCCOCCNC(=O)CC[C@H](NC(=O)CCCCCCCCCCC)C(=O)O)C(=O)N[C@@](C)(Cc1ccccc1)C(=O)N[C@H](C(=O)N[C@H](CCC(=O)O)C(=O)N[C@@](C)(Cc1ccc(O)cc1)C(=O)N[C@@H](CC(C)C)C(=O)N[C@H](C(=O)N[C@@H](CCC(=O)O)C(=O)NCC(=O)NCC(=O)N1CCC[C@H]1C(=O)N[C@@H](CO)C(=O)N[C@@H](CO)C(=O)NCC(=O)N[C@@H](C)C(=O)N1CCC[C@H]1C(=O)N1CCC[C@H]1C(=O)N1CCC[C@H]1C(=O)N[C@@H](CO)C(N)=O)[C@@H](C)CC)[C@@H](C)CC)C(=O)O [Example 430] (H-Y[Aib]EGT[αMePhe(2-F)]TSD[4Pal][Aib]I[αMeL]LD[Orn]K([AEEA-AEEA-γGlu-Lauroyl])AQ[Aib]K([AEEA-AEEA-γGlu-Lauroyl])[αMeF]I[dE][αMeY]LIEGGPSSGAPPPS-NH2)
[1]; [4]
  EC50: > 9950 nM
[1]; cAMP, 37° C., 0.1% bovine casein and 1.0% human serum albumin, geometric mean (SEM, n), read-out: hGCGR EC50, nM (SEM, n)
  EC50: > 9950 nM
[2]; HEK293, cAMP, 37° C., 0.1% bovine casein and 1.0% human serum albumin, read-out: hGLP-1R Emax, % ± SEM
  Emax: 88.5%
[2]; HEK293, cAMP, 37° C., 0.1% bovine casein, arithmetic mean, read-out: hGLP-1R Emax, % ± SEM
  Emax: 93.1%
[2]; [5]
  EC50: 0.342 nM
[3]; HEK293, cAMP, 37° C., 0.1% bovine casein and 1.0% human serum albumin, percent of maximal response to GIP(1-42)NH2, read-out: hGIPR Emax, % ± SEM
  Emax: 91.5%
[3]; [6]
  EC50: 0.0175 nM
[3]; 37° C., 0.1% bovine casein and 1.0% human serum albumin, geometric mean (SEM, n), read-out: hGIPR EC50, nM (SEM, n)
  EC50: 1.09 nM

## CC[C@H](C)[C@H](NC(=O)[C@H](CCCN)NC(=O)[C@H](CC(=O)O)NC(=O)[C@H](CC(C)C)NC(=O)[C@](C)(CC(C)C)NC(=O)[C@@H](NC(=O)C(C)(C)NC(=O)[C@H](Cc1ccc(O)cc1)NC(=O)[C@H](CC(=O)O)NC(=O)[C@H](CO)NC(=O)[C@@H](NC(=O)[C@](C)(Cc1ccccc1F)NC(=O)[C@@H](NC(=O)CNC(=O)[C@H](CCC(=O)O)NC(=O)C(C)(C)NC(=O)[C@@H](N)Cc1ccc(O)cc1)[C@@H](C)O)[C@@H](C)O)[C@@H](C)CC)C(=O)N[C@@H](C)C(=O)N[C@@H](CCC(N)=O)C(=O)NC(C)(C)C(=O)N[C@@H](CCC(=O)O)C(=O)N[C@@H](Cc1ccccc1)C(=O)N[C@H](C(=O)N[C@@H](CCCCNC(=O)COCCOCCNC(=O)CC[C@H](NC(=O)CCCCCCCCCCCCC(=O)O)C(=O)O)C(=O)N[C@@](C)(Cc1ccc(O)cc1)C(=O)N[C@@H](CC(C)C)C(=O)N[C@H](C(=O)N[C@@H](CCCCNC(=O)COCCOCCNC(=O)CC[C@H](NC(=O)CCCCCCCCCCCCC(=O)O)C(=O)O)C(=O)NCC(=O)NCC(=O)N1CCC[C@H]1C(=O)N[C@@H](CO)C(=O)N[C@@H](CO)C(=O)NCC(=O)N[C@@H](C)C(=O)N1CCC[C@H]1C(=O)N1CCC[C@H]1C(=O)N1CCC[C@H]1C(=O)N[C@@H](CO)C(N)=O)[C@@H](C)CC)[C@@H](C)CC [Example 369]
[1]; [4]
  EC50: > 9950 nM
[2]; [5]
  EC50: 0.555 nM
[3]; [6]
  EC50: 0.037 nM

## CC[C@H](C)[C@H](NC(=O)[C@H](CC(C)C)NC(=O)[C@](C)(Cc1ccc(O)cc1)NC(=O)[C@H](CCCCNC(=O)COCCOCCNC(=O)COCCOCCNC(=O)CC[C@H](NC(=O)CCCCCCCCCOc1ccc(C(=O)O)cc1)C(=O)O)NC(=O)[C@@H](NC(=O)[C@H](Cc1ccccc1)NC(=O)[C@H](CCC(=O)O)NC(=O)C(C)(C)NC(=O)[C@H](CCC(N)=O)NC(=O)[C@H](C)NC(=O)[C@H](CCC(N)=O)NC(=O)[C@H](CCCN)NC(=O)[C@H](CC(=O)O)NC(=O)[C@H](CC(C)C)NC(=O)[C@](C)(CC(C)C)NC(=O)[C@@H](NC(=O)C(C)(C)NC(=O)[C@H](Cc1ccc(O)cc1)NC(=O)[C@H](CC(=O)O)NC(=O)[C@H](CO)NC(=O)[C@@H](NC(=O)[C@](C)(Cc1ccccc1F)NC(=O)[C@@H](NC(=O)CNC(=O)[C@H](CCC(=O)O)NC(=O)C(C)(C)NC(=O)[C@@H](N)Cc1ccc(O)cc1)[C@@H](C)O)[C@@H](C)O)[C@@H](C)CC)[C@@H](C)CC)C(=O)N[C@@H](CCCCNC(=O)COCCOCCNC(=O)COCCOCCNC(=O)CC[C@H](NC(=O)CCCCCCCCCOc1ccc(C(=O)O)cc1)C(=O)O)C(=O)NCC(=O)NCC(=O)N1CCC[C@H]1C(=O)N[C@@H](CO)C(=O)N[C@@H](CO)C(=O)NCC(=O)N[C@@H](C)C(=O)N1CCC[C@H]1C(=O)N1CCC[C@H]1C(=O)N1CCC[C@H]1C(=O)N[C@@H](CO)C(N)=O [Example 402]
[1]; hGCGR EC50, nM (SEM, n), cAMP, 37° C., 0.1% bovine casein (no human serum albumin), geometric mean
  EC50: > 9950 nM
[1]; hGCGR EC50, nM (SEM, n), cAMP, 37° C., 0.1% bovine casein and 1.0% human serum albumin, geometric mean (SEM, n)
  EC50: > 9950 nM
[2]; HEK293, read-out: hGLP-1R Emax, % ± SEM, cAMP, 37° C., 0.1% bovine casein and 1.0% human serum albumin
  Emax: 110%
[2]; hGLP-1R EC50, nM (SEM, n), 37° C., 0.1% bovine casein (no human serum albumin), geometric mean
  EC50: 0.221 nM
[2]; hGLP-1R EC50, nM (SEM, n), 37° C., 0.1% bovine casein and 1.0% human serum albumin, geometric mean (SEM, n)
  EC50: 13.5 nM
[3]; HEK293, read-out: hGIPR Emax, % ± SEM, cAMP, 37° C., 0.1% bovine casein and 1.0% human serum albumin, percent of maximal response to GIP(1-42)NH2
  Emax: 84.5%
[3]; HEK293, read-out: hGIPR Emax, % ± SEM, cAMP, 37° C., 0.1% bovine casein, percent of maximal response to GIP(1-42)NH2, arithmetic mean
  Emax: 98.9%
[3]; hGIPR EC50, nM (SEM, n), 37° C., 0.1% bovine casein (no human serum albumin), geometric mean
  EC50: 0.0132 nM
[3]; hGIPR EC50, nM (SEM, n), 37° C., 0.1% bovine casein and 1.0% human serum albumin, geometric mean (SEM, n)
  EC50: 1.11 nM
